Assay [1] can be described thus: Induction of apoptosis in human MOLP8 cells assessed as caspase 3/7 activation after 2 hrs by caspase-Glo 3/7 assay. It is filed as functional, cell-based. The conditions noted are these: MOLP-8, 2 h.
Assay [2] has as its target T1, Induced myeloid leukemia cell differentiation protein Mcl-1 (Homo sapiens, UniProt Q07820). Briefly: Inhibition of N-terminal 26 residues truncated 5-FAM labelled Bid-BH3 binding to MCL1 (unknown origin) by fluorescence polarization assay.
Assay [3] concerns the target T2, Bcl-2-like protein 1 (Homo sapiens, UniProt Q07817). Briefly: Inhibition of biotin labelled Bid-BH3 binding to C-terminal GST-tagged human BCL-XL […] expressed in Escherichia coli BL21 (DE3) preincubated for 1 hr followed by followed by biotin labelled Bid-BH3 addition measured after 2 hrs by ELISA.
In a further assay the test system is HeLa. Briefly: Cytotoxicity against human HeLa cells assessed as reduction in cell viability after 72 hrs. It is filed as functional, cell-based.
In assay [4] the test system is RS4-11. Nature of the assay: Cytotoxicity against human RS4:11 cells assessed as reduction in cell viability after 72 hrs. The conditions noted are these: RS4-11, 72 h. The format is functional, cell-based.
In assay [5] the target is T1, Induced myeloid leukemia cell differentiation protein Mcl-1. Nature of the assay: Inhibition of FAM labelled Bid-BH3 binding to N-terminal GST-tagged human recombinant MCL1 expressed in Escherichia coli […] after 60 mins by TR-FRET assay. A general note: Time-resolved FRET reads energy transfer from a long-lived donor to a nearby acceptor.
For assay [6], the target named is T2, Bcl-2-like protein 1. Nature of the assay: Inhibition of biotin labelled Bid-BH3 binding to GST-tagged BCL-XL (unknown origin) preincubated for 15 mins followed by biotin labelled Bid-BH3 addition measured after 2 hrs by ELISA. For orientation: An ELISA detects its analyte on a solid surface through an enzyme-linked reagent.
The test system of the next assay is MDA-MB-468. Nature of the assay: Cytotoxicity against human MDA-MB-468 cells assessed as reduction in cell viability by MTT assay. The format is functional, cell-based.
The target in assay [7] is T1, Induced myeloid leukemia cell differentiation protein Mcl-1. Nature of the assay: Binding affinity to MCL1 (unknown origin) by surface plasma resonance method.
Assay [8] shares this target. Briefly: Inhibition of FITC-BAK binding to His6 tagged MBP fused recombinant human MCL1 (172 to 327 residues) expressed in Escherichia coli by fluorescence polarization competition assay.
The next assay concerns A-375. Nature of the assay: Growth inhibition of human A375 cells after 48 hrs by CellTiter-Blue assay. The format is functional. The conditions noted are these: A-375, 48 h.
Assay [9] concerns the target T1, Induced myeloid leukemia cell differentiation protein Mcl-1. Briefly: Displacement of FAM labelled Bid-derived peptide from MCL1 (unknown origin) incubated for 1 min by fluorescence polarization assay. A general note: In fluorescence polarisation assays a small probe gives low polarisation when free and higher when bound to something large.
Assay [10] concerns the target Apoptosis regulator Bcl-2 (Homo sapiens, UniProt P10415). Nature of the assay: Displacement of FAM labelled Bid-derived peptide from Bcl-2 (unknown origin) incubated for 1 min by fluorescence polarization assay.
For the next assay, the species on record is Homo sapiens. Nature of the assay: Selectivity ratio of Ki for Bcl-2 (unknown origin) to Ki for MCL1 (unknown origin).
The next assay concerns NCI-H345. Nature of the assay: Induction of apoptosis in human NCI-H345 cells after 48 hrs by Annexin V-FITC staining based flow cytometry. The format is functional, cell-based. The conditions noted are these: NCI-H345, 48 h.
For the next assay, the system named is HL-60. Nature of the assay: Induction of apoptosis in human HL60 cells after 48 hrs by Annexin V-FITC staining based flow cytometry. The format is functional, cell-based. The conditions noted are these: HL-60, 48 h.
Assay [11] is described as follows: Selectivity ratio of IC50 for human HL60 cells to IC50 for human NCI-H345 cells. It is filed as functional.
The nature of assay [12]: Antiproliferative activity against human NCI-H2110 cells after 48 hrs by CellTiter-Glo assay. It is filed as functional, cell-based. Particulars: NCI-H2110, 48 h.
A further assay relates to NCI-H23. Briefly: Antiproliferative activity against human NCI-H23 cells after 48 hrs by CellTiter-Glo assay. The format is functional, cell-based. The conditions noted are these: NCI-H23, 48 h.
In assay [13] the target is T1, Induced myeloid leukemia cell differentiation protein Mcl-1. Briefly: Inhibition of His6 tagged MBP fused Mcl-1 (unknown origin) after 0.5 hrs by fluorescence polarization assay.
The nature of assay [14]: Inhibition of recombinant FITC tagged Bid-BH3 binding to BCL-XL deltaC (unknown origin) expressed in Escherichia coli BL21 (DE3) by fluorescence polarization assay. Further details: species or system Homo sapiens.
A further assay relates to B-ALL. Nature of the assay: Cytotoxicity against human B-ALL cells assessed as reduction in cell viability after 24 hrs by CellTiter-Glo luminescent assay. It is filed as functional, cell-based.
For assay [15], the target named is T1, Induced myeloid leukemia cell differentiation protein Mcl-1. Nature of the assay: Inhibition of FITC-BAK binding to MCL1 (172 to 327 residues) (unknown origin) by fluorescence polarization assay.
Assay [16] deals with RS4-11. Nature of the assay: Cytotoxicity against human RS4:11 cells assessed as reduction in cell viability. It is filed as functional, cell-based.
The target in assay [17] is T1, Induced myeloid leukemia cell differentiation protein Mcl-1. Briefly: Inhibition of Mcl-1 (unknown origin) by TR-FRET assay.

This note sets out measurements from ChEMBL document CHEMBL4145520, “Small-molecule Mcl-1 inhibitors: Emerging anti-tumor agents” (Eur J Med Chem, 2018).

T1 sequence (Q07820 whole entry, the tested form may be a part): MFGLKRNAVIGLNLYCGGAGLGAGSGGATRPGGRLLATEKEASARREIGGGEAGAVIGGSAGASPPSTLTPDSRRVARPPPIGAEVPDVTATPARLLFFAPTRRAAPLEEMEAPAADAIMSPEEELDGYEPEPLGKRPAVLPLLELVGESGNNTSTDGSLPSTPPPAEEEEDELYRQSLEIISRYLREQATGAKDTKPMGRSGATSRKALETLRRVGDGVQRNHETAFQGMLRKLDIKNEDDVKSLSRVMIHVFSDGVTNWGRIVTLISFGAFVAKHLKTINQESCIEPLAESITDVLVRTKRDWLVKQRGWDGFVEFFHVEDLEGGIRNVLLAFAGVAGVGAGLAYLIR
T2 sequence (Q07817 whole entry): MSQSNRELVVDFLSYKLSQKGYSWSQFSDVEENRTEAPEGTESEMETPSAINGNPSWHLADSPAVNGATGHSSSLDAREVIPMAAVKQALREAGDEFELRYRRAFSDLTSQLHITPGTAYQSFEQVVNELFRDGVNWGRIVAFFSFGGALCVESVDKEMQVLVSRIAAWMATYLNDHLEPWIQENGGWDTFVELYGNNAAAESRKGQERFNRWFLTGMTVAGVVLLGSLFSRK
Sequence of Apoptosis regulator Bcl-2 (P10415 whole entry): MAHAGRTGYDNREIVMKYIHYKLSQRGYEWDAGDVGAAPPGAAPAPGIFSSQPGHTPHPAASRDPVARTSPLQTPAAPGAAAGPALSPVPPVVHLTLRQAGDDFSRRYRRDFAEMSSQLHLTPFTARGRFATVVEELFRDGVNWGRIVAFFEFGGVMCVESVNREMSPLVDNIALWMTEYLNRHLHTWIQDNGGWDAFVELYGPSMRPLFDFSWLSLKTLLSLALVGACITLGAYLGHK

On to `Cc1c(-c2cccc3c(CCCOc4cccc5ccccc45)c(C(=O)O)[nH]c23)c(COc2ccc(B(O)O)c(C=O)c2)nn1C`, for which the EC50 (commonly the concentration that produces a half-maximal response) in assay [1] came out at 0.46 µM.

With `COc1cc(NC(=O)CCC(=O)N2CCN(Cc3cccc(-c4ccc(Cl)cc4)c3)CC2)cc(OC)c1OC`, affinity in assay [2] was put at a Ki of 0.32 µM.

For the molecule `Cc1c(-c2cccc3c(CCCOc4cccc5ccccc45)c(C(=O)O)n(C)c23)c(COc2ccc(B(O)O)c(C=O)c2)nn1C`, the concentration for a half-maximal effect (EC50) in assay [1] came to 0.075 µM.

For `Cc1c(-c2cccc3c(CCCOc4cccc5ccccc45)c(C(=O)O)[nH]c23)c(COc2ccccc2)nn1C`, the EC50 in [1] was more than 11 µM.

As to `O=C(c1ccccc1O)c1[nH]c(Cl)c(Cl)c1-n1c(C(=O)c2ccccc2O)cc(Cl)c1Cl`, the results for the IC50 on Bcl-2-like protein 1 [3], in the assay on HeLa and with RS4-11 [4] were more than 80 µM, 20 µM and 2 µM, respectively.

`Cc1c(-c2cccc3c(CCCOc4cccc5ccccc45)c(C(=O)O)[nH]c23)c(COc2ccc(B(O)O)cc2)nn1C`: in assay [5], the IC50 (as a rule, the concentration that inhibits the measured activity by half) was found to be 0.162 µM. Also, in [1], the half-maximal effective concentration (EC50) was more than 11 µM.

Regarding `Cc1c(-c2cccc3c(CCCOc4cccc5ccccc45)c(C(=O)O)[nH]c23)c(COc2cccc(C=O)c2)nn1C`, in [1], the EC50 is more than 11 µM.

`O=C(O)CSc1ccc(C(=O)c2[nH]c(Cl)c(Cl)c2-n2c(C(=O)c3ccc(SCC(=O)O)cc3O)cc(Cl)c2Cl)c(O)c1`: the values for the IC50 at Bcl-2-like protein 1 [6] and in the assay with MDA-MB-468 were more than 100 µM and 29 µM, respectively.

On to `N#CC1=C(NCCC(=O)O)c2ccc(Sc3ccc(Br)cc3)c3cccc(c23)C1=O`, for which, in [7], the Kd (in general, the equilibrium constant for the complex coming apart) was 0.15 µM.

With `Cc1cc(Oc2ccc(S(=O)(=O)N3CC(C(=O)O)Cc4ccccc43)cc2)cc(C)c1Cl` (stereo not drawn), the inhibition constant Ki (commonly a dissociation constant, usually derived from enzyme kinetics or from competition with a known ligand) in assay [8] was 0.12 µM. Besides, halving of growth in the assay on A-375 (GI50) required 50 µM.

For `O=C(O)c1cc2ccccc2n1S(=O)(=O)c1ccc(OCc2cccc(Cl)c2)cc1`, the Ki in assay [9] worked out at 0.48 µM; in assay [10], 3.6 µM. In the assay filed under Homo sapiens, the Ratio Ki is 7.5. The IC50 was 2.2 µM in the assay on NCI-H345 and 63.3 µM with HL-60. For the same molecule, the “Ratio IC50” value in assay [11] was determined as 30.

In the case of `CCc1nn(C)c(CC)c1-c1cccc2c(CCCOc3cccc4ccccc34)c(C(=O)O)n(CCN3CCOCC3)c12`, the EC50 in assay [1] was determined as 0.35 µM.

With `O=C(O)c1[nH]c2ccccc2c1CCCCC1CCCCC1`, the half-maximal effective concentration (EC50) in assay [12] worked out at 5.3 µM; in the assay with NCI-H23, 7.2 µM.

`Cc1cc(OCCCc2c3n(c4c(-c5c(C)nn(C)c5C)c(Cl)ccc24)CCCC(c2cc(C(=O)O)c4ccn(C)c4c2)C3=O)cc(C)c1Cl` (stereo not drawn) registered a Ki in assay [13] of less than 0.001 µM.

Regarding `CC(=O)c1cccc(OCc2nn(C)c(C)c2-c2cccc3c(CCCOc4cccc5ccccc45)c(C(=O)O)[nH]c23)c1`, in assay [1], the EC50 was found to be 2.7 µM.

For the molecule `Cc1cs/c(=N\C2CCCCC2)n1/N=C/c1ccc(O)c(O)c1O`, the IC50 in assay [14] was more than 50 µM; with B-ALL, 4.2 µM.

In assay [15], `Cc1cc(Oc2ccc(C(=O)O)c(OCc3ccccc3)n2)cc(C)c1Cl` showed a Ki of 2.9 µM.

`COc1cc(CC(=O)NCc2ccc(C(=O)N3CCN(Cc4ccccc4-c4ccccc4)CC3)cc2)cc(OC)c1OC` came in with a Ki in assay [2] of 0.18 µM.

Turning to `CC1(C)CCC(CN2CCN(c3ccc(C(=O)NS(=O)(=O)c4ccc(NCC5CCOCC5)c([N+](=O)[O-])c4)c(Oc4cnc5[nH]ccc5c4)c3)CC2)=C(c2ccc(Cl)cc2)C1` [VENETOCLAX], the half-maximal inhibitory concentration (IC50) in the assay with RS4-11 [16] lay in the range of 0.0015 to 0.005 µM. The molecule also returned a Ki in [17] of more than 0.444 µM.

Consider `CC(=O)c1cc(OCc2nn(C)c(C)c2-c2cccc3c(CCCOc4cccc5ccccc45)c(C(=O)O)[nH]c23)ccc1B(O)O`, for which, in assay [1], the EC50 stood at 0.17 µM.
